Assay results as given in the NIST ThermoML archive (doi:10.1021/je900725w).

Legend:
[1] = 308.15 K, 101.33 kPa, Liquid
[2] = relative permittivity at zero frequency (dimensionless); wn = mass fraction of the nth substance listed; details: 101 kPa, Liquid, Parallel plate capacitor
[3] = wn = mass fraction of the nth substance listed; details: 101 kPa, Liquid; for viscosity: Capillary tube (Ostwald / Ubbelohde) method; for mass density: Vibrating tube method

CCOCCO [2-ethoxyethan-1-ol]
Details	mass density [kg/m3]
[1]	924.97

Details	viscosity [mPa·s]
[1], Capillary tube (Ostwald / Ubbelohde) method	1.828

CCOCCO [2-ethoxyethan-1-ol] + O
Details	mass density, w1 = 0.25 [kg/m3]	mass density, w1 = 0.4 [kg/m3]	mass density, w1 = 0.5 [kg/m3]	relative permittivity at zero frequency, w1 = 0.25	relative permittivity at zero frequency, w1 = 0.4	relative permittivity at zero frequency, w1 = 0.5	viscosity, w1 = 0.25 [mPa·s]	viscosity, w1 = 0.4 [mPa·s]	viscosity, w1 = 0.5 [mPa·s]
[2], 308.15 K	–	–	–	60.13	50.54	44.3	–	–	–
[2], 313.15 K	–	–	–	58.7	49.28	43.03	–	–	–
[2], 318.15 K	–	–	–	57.37	48.14	41.95	–	–	–
[2], 323.15 K	–	–	–	56.11	47.1	40.96	–	–	–
[3], 308.15 K	997.58	997.47	993.61	–	–	–	1.843	1.955	1.923
[3], 313.15 K	992.45	991.01	985.14	–	–	–	1.529	1.702	1.72
[3], 318.15 K	988.07	986.96	980.04	–	–	–	1.274	1.427	1.455
[3], 323.15 K	983.94	983.78	976.1	–	–	–	1.092	1.232	1.276
